Legend:
[1] = test system: naloxone-induced flush (tail skin temperature); experiment: Morphine-dependent rat model of hot flush (MD model); details: for ED50: Rattus norvegicus, read-out: ED50 value, abatement of naloxone-induced flush; for effect on naloxone-induced flush at maximal flush: 1 hour prior to naloxone, 15 minutes post-naloxone
Experimental: (§1) Dosinq: All doses were prepared based on mg/kg.
(§2) Animals: Ovariectomized Sprague-Dawley rats (180-220 g) were obtained from a commercial vendor (Taconic, Germantown, N.Y.) and individually housed under 12 hours light/dark cycle in a room maintained at 25° C. Animals were provided with standard rat chow and water ad libitum.
Morphine-dependent model: Ovariectomized rats were injected once daily for 8-9 days with vehicle to minimize stress responses and then administered compound(s) on test day. On day 4 of dosing, morphine dependence was induced by sc implantation of two slow-release morphine pellets (75 mg/pellet) in the dorsal scapular region. […] Four to six days after implantation, morphine withdrawal was induced with an opioid antagonist (naloxone) that causes a transient increase in TST. […] Rats were mildly sedated with ketamine and a thermistor connected to a MacLab data acquisition system was taped to the base of the tail. Tail skin temperature was then monitored continuously for 35 minutes to establish a baseline temperature. Naloxone was subsequently administered and TST was measured for an additional 35 to 60 minutes (total recording time 70 to 95 minutes).
Statistical analysis: To analyze changes in TST induced by naloxone in morphine-dependent rats, all data were analyzed using a two factor repeated measure ANOVA for “treatment” and “time.” The model was fit to test whether there were significant differences in the responses between treatment groups. Naloxone administration is designated as time zero and data is then analyzed at 5 minute intervals. The first three readings were averaged and used as baseline TST scores. All data were analyzed as ΔTST (TST for each time point—baseline). Multiple comparisons (LSD p-values) among the treatment groups at each time point were used for the analysis. Efficacy of hot flush abatement was determined by evaluating statistical differences at the peak response time of 15 minutes post-naloxone, when the maximal change in TST is observed. A customized SAS-excel (SAS Institute, Cary, N.C.) application was used applying a four parameter logistic model to determine ED50 values. A logistic dose transformation was performed on ΔTST. Maximum flush (ΔTST at 15 minutes post-naloxone) was used in the analysis and the minimum was locked at zero.

[2] = test system: tail skin temperature during active (dark) phase; experiment: OVX-induced thermoregulatory dysfunction telemetry model
Experimental: as §1, §2
A temperature and physical activity transmitter (PhysioTel TA10TA-F40, Data Sciences International) was implanted subcutaneously in the dorsal scapular region and the tip of the temperature probe was tunneled subcutaneously 2.5 cm beyond the base of the tail. After a 7-day recovery period, TST readings were continuously recorded for the remainder of the study. Tail skin temperature readings were collected from each animal every 5 minutes with values obtained over a 10 second sampling period. The day before test day, an average baseline TST value was calculated for each animal by averaging temperature readings recorded during the 12 hours active (dark) phase. In these studies, animals were dosed approximately 1 hour prior to the onset of dark cycle.
Evaluation of a compound's ability to restore normal lowering of TST in the telemetry model was analyzed using hourly TST values calculated for each animal by averaging the 12 temperature readings obtained every 5 minutes over that recording time. To analyze ΔTST in the telemetry model, a two factors repeated measure ANOVA was performed. The model used for analysis was ΔTST=GRP (group)+HR (hours)+GRP*HR+BASELINE. Thus, the reported least squares means are the expected mean values as if both groups had the same baseline value. Post-hoc tests of hourly GRP*HR samples are t-tests of the difference between groups for each hour. To be conservative, a result was not considered significant unless the p-value was <0.025. All analyses were performed using SAS PROC MIXED (SAS, Carey, N.C.).

In the case of `CN1CCN(CC(c2cccc(Cl)c2)C2(O)CCCCC2)CC1` (racemic) [1-[1-(3-chlorophenyl)-2-(4-methyl-1-piperazinyl)ethyl]cyclohexanol], the “changes in TST over time after naloxone” value ([1]; dose response, sc) is reported as “dose-dependently abate the naloxone-induced flush”.
`CN(C)CC(c1ccc(O)cc1)C1(O)CCCCC1` (centres unmarked) [DVS-233, O-desmethyl-venlafaxine] was tested, and the ED50 ([1]; sc) was 30 mg/kg and the “changes in TST over time” value ([2]; 60 mg/kg sc) was “significantly and transiently decreases TST during the active phase”.
In the case of `CN(C)CC(c1cccc(Cl)c1)C1(O)CCCCC1` (centres unmarked) [WY-781], the “effect on naloxone-induced flush at maximal flush” value (from here on “effect … at maximal flush”) ([1]; 30 mg/kg intraperitoneally) is reported as “abated the naloxone-induced flush”.
With `CN(C)CC(c1cccc(C(F)(F)F)c1)C1(O)CCCCC1` (centres unmarked) [WY-867] the “effect … at maximal flush” value ([1]; 30 mg/kg intraperitoneally) was “abated the naloxone-induced flush”.
`CCC1(c2cnc[nH]2)Cc2ccccc2C1` [atipamezole] was tested, and the “changes in TST after naloxone vs vehicle” value ([1]; atipamezole 0.3 mg/kg sc alone, 55 minutes prior to naloxone) was “not significantly different from vehicle treated rats”.
For `CNCCCN1c2ccccc2CCc2ccccc21` [desipramine], the “abatement of naloxone-induced flush” value ([1]; 1 mg/kg sc, 40 minutes prior to naloxone, alone) was “approximately 50%”, the “abatement of hot flush” value ([1]; 3 mg/kg desipramine co-administered with 10 mg/kg dose of SRI) was 100% and the ED50 ([1]; sc) was 1 mg/kg. The “effect … at maximal flush” value ([1]; dose response, sc) was “dose-dependently abates the naloxone-induced flush”, the “reduction of TST compared to vehicle treated rats in naloxone-induced hot flush” value ([1]; low dose) was 50% and the “changes in TST over time” value ([2]; 10 mg/kg sc) was “significantly decreases TST over the entire length of the active phase”.
`CNCCC(Oc1ccc(C(F)(F)F)cc1)c1ccccc1` (centres unmarked) [fluoxetine] was tested, and the “effect on naloxone-induced flush” value ([1]; fluoxetine 10 mg/kg sc alone) was “did not abate the naloxone-induced flush”.
In the case of `CCOc1ccccc1OC(c1ccccc1)C1CNCCO1` (centres unmarked) [reboxetine], the “changes in TST over time after naloxone” value ([1]; dose response, sc) is reported as “dose-dependently abate the naloxone-induced flush” and the “effect … at maximal flush” value ([1]; dose response, sc) is reported as “dose-dependently abates the naloxone-induced flush”.
In the case of `COc1ccc(C(CN(C)C)C2(O)CCCCC2)cc1` (centres unmarked) [venlafaxine], the “effect on elevated naloxone-dependent hot flush induced by atipamezole” value ([1]; rat, in vivo) is reported as “able to alleviate” and the “changes in TST over time” value ([2]; 15 mg/kg sc) is reported as “significantly and transiently decreased TST during the active phase”.

Source: patent publication US7345096B2, “Use of norepinephrine reuptake modulators for preventing and treating vasomotor symptoms” (Wyeth, priority 2002, dated 2008)
